Reference: ChEMBL document CHEMBL1150047, “New sesquiterpene quinols from a Micronesian sponge, Aka sp” (J Nat Prod, 2003)
Where a name gives a salt, the structure may show the parent alone. The source made the active and inactive calls. The calls are words filed in the database; no cut-off is given here.

Tests used:
[1] = molecular target: Cyclin-dependent kinase 4/cyclin D1 (Homo sapiens, UniProt P11802); assay: Inhibition of CDK4/Cyclin D1 complex formation
[2] = molecular target: Cyclin-dependent kinase 4/cyclin D1 (Homo sapiens) (UniProt P11802+P24385); assay: Inhibition of CDK4/Cyclin D1 complex formation at 10 ug/mL; assay type: protein-complex assay

Cyclin-dependent kinase 4/cyclin D1, sequence (P11802 whole entry): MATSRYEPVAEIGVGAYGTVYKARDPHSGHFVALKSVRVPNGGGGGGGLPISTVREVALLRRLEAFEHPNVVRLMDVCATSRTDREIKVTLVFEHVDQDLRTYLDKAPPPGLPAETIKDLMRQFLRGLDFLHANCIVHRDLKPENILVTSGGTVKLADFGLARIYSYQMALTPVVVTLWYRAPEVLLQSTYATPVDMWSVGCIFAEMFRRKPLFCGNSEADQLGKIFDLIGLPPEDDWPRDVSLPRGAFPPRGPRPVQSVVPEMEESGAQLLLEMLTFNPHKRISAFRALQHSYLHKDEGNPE
Cyclin-dependent kinase 4/cyclin D1, sequence (P24385 whole entry, further chain): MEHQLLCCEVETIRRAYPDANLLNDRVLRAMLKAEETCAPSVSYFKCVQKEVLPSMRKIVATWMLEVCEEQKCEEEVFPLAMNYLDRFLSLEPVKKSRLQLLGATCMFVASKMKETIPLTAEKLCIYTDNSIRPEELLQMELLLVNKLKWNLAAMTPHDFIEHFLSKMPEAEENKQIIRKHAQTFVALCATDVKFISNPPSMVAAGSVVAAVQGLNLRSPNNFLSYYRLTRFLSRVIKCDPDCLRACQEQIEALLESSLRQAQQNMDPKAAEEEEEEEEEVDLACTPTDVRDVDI

| Compound | IC50 [1] [µM] | Activity [2] |
| --- | --- | --- |
| CC(CC[C@@H](C)[C@H]1CC[C@H]2[C@@H]3C[C@H](OS(=O)(=O)O)[C@H]4C[C@H](OS(=O)(=O)O)[C@@H](OS(=O)(=O)O)C[C@]4(C)[C@H]3CC[C@]12C)C(C)(C)C (some centres undefined) [HALISTANOL SULFATE] | 12.6 |  |
| COCc1cc(O)c(O)c2c1[C@@]1(C)CC[C@H]3C(C)(C)CCC[C@]3(C)[C@H]1C2 |  | inactive |
| CC1(C)CCC[C@]2(C)[C@@H](Cc3c(O)ccc(O)c3C=O)[C@](C)(O)CC[C@@H]12 |  | inactive |
| CC1=CC[C@H]2C(C)(C)CCC[C@]2(C)[C@H]1Cc1cc(O)c(O)c(C=O)c1OS(=O)(=O)O [SIPHONODICTYAL C] | 19.5 |  |
